Reference: ChEMBL document CHEMBL1201862, “PubChem BioAssay data set” (2004)
Each block holds one compound with its values, some of them ahead of it. Activity calls are given as the source filed them.

Assays:
[1] = target: T1, High affinity choline transporter 1 (Homo sapiens, UniProt Q9GZV3); assay: CHT choline uptake inhibitors, dose response, cell-based, HEK-293 hCHT, [3H]-choline uptake (AID 652177); type: functional
T1 sequence (Q9GZV3 whole entry): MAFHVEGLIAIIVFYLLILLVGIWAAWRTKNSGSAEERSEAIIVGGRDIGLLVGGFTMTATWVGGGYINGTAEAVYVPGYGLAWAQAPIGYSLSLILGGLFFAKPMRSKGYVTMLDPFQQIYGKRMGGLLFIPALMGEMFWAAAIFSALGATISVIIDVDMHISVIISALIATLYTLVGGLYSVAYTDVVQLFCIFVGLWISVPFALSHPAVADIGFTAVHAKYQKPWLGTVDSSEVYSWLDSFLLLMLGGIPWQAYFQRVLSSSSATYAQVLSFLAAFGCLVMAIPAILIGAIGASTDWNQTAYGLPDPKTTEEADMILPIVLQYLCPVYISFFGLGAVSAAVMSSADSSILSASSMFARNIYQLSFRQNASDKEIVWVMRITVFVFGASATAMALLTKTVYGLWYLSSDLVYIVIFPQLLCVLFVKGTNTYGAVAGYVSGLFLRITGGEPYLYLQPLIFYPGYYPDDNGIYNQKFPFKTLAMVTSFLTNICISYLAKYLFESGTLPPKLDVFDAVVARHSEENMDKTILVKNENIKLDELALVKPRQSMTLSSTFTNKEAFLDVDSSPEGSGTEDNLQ

[2] = target: Endoplasmic reticulum aminopeptidase 1 (Homo sapiens, UniProt Q9NZ08); assay: ERAP1 aminopeptidase inhibitors, dose response, biochemical, cherry-pick, set 2, plate reader (AID 743314)
[3] = inhibitors of CMV-promoter luciferase reporter, dose response, counter-screen for Pax8 inhibitor project, cell-based, HEK293, luminescence, dry powder (AID 743020); type: functional
Paired box protein Pax-8 = Paired box protein Pax-8 (Homo sapiens, UniProt Q06710); assay: inhibitors of PAX8-driven TPO luciferase reporter, dose response, RMG-I cells, cherry-pick (AID 687027); type: functional, cell-based;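 further: luciferase reporter driven by Pax8 target thyroperoxidase promoter measured by SteadyGlo luminescence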
[4] = target: Potassium channel subfamily K member 9 (Homo sapiens, UniProt Q9NPC2); assay: TASK3 (KCNK9) channel inhibitors, thallium flux, SAR follow-up, selectivity assay for TASK1 inhibitor project, cell-based, FluxOR thallium flux, concentration-response (AID 652211); type: functional;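 further: potency is for inhibitors of the channel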
[5] = cytotoxicity in HEK-293T cells, dose response, cytotoxicity control for TCR NF-kB inhibitor project, luminescence, T-cell screen hits (AID 489026); type: functional, cell-based;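 further: cells exposed to compound about 14 hours before the viability readout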
cells [6] = assay: cells
[7] = inhibitors of intracellular T. cruzi replication, confirmation, NIH3T3 host cells, beta-gal luminescence (AID 2044); type: functional, cell-based;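 further: intracellular parasites grown in NIH/3T3 mouse fibroblasts as host cells; luminescent beta-galactosidase reporter signal from transgenic T. cruzi replicating inside host cells; inhibitors lower the luminescence signal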
[8] = Counterscreen for activators of the function of SWI/SNF related, matrix associated, actin dependent regulator of chromatin, subfamily a, member 2 (SMARCA2, BRM): Luminescence-based cell-based high throughput dose response assay to identify non-selective compounds using the VP16 reporter assay.; type: functional
[9] = cytotoxicity toward NIH3T3 fibroblasts, dose response, counter-screen, cell-based, ATP luminescence, mouse fibroblasts (AID 2010); type: functional;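 further: cells exposed to compound for about 90 hours before reading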
[10] = target: Nuclear receptor subfamily 0 group B member 1 (Homo sapiens, UniProt P51843); type: functional, cell-based;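 further: HEK293T cells transfected with SF-1 and DAX-1 plus StAR promoter luciferase reporter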
cells [11] = type: functional, cell-based
[12] = IGROV1 ovarian cancer cell cytotoxicity, dose response, PAX8 inhibitor project, plate reader, dry powder samples (AID 743043); type: functional, cell-based; details: IGROV-1
[13] = cytotoxicity in OVCAR8 ovarian cancer cells, dose response, PAX8 project, cell-based, plate reader, dry powder samples (AID 743197); type: functional; details: OVCAR-8
[14] = miR-122 activators in hepatoma reporter cells, dose response, cell-based, Huh7 psiCHECK-miR122, Renilla luciferase, cherry-picked (AID 651956); type: functional;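 further: huh7 hepatoma cells stably carrying a psiCHECK-2 miR-122 sensor plasmid; renilla luciferase signal reporting endogenous miR-122 activity after 48 h compound exposure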
[15] = HEK293T cytotoxicity, dose response, cytotoxicity control for miR-122 modulator project, cell-based, activator set, cherry-pick (AID 720690); type: functional;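 further: HEK293T human cells scored for general mammalian cytotoxicity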
[16] = HEK293T cytotoxicity, dose response, cytotoxicity control for miR-122 modulator project, cell-based, inhibitor set, cherry-pick, set 2 (AID 720697); type: functional
BJ [17] = assay: cytotoxicity toward BJ-TERT fibroblasts, dose response, cell-based, RAS-independent, luminescence (AID 1933); type: functional; details: Homo sapiens
INS1 = assay: beta cell apoptosis inhibitors, cytokine rescue, dose response, luminescence, retest (AID 449756); type: functional, cell-based; details: Rattus norvegicus;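 further: cell death triggered by IL-1 beta plus TNF-alpha plus IFN-gamma mixture; protective hits raise ATP signal compared with cytokine alone wells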
[18] = HepG2 cell cytotoxicity, dose response, cytotoxicity control, ATP luminescence, cherry-pick, activator set 2 (AID 1053143); type: functional, cell-based
BJ [19] = assay: cytotoxicity toward Ras-transformed BJeLR fibroblasts, dose response, cell-based, alamar blue fluorescence, cherrypicked samples (AID 2631); type: functional; details: Homo sapiens;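 further: confirmatory dose-response assay in RAS-dependent BJ fibroblasts engineered with TERT, LT and ST, with cytotoxicity read by fluorescence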
BJ [20] = assay: cytotoxicity toward BJ-TERT-LT-ST fibroblasts, dose response, cell-based, RAS-independent, luminescence (AID 1935); type: functional; details: Homo sapiens;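 further: BJ fibroblasts immortalized with TERT plus LT and ST oncogenes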
[21] = target: Luciferin 4-monooxygenase (Photinus pyralis, UniProt P08659); assay: firefly luciferase enzyme inhibitors, dose response, biochemical, luminescence (AID 1891)
[22] = Luminescence Cell-Based Dose Confirmation HTS to Identify Inhibitors of Platelet Dense Granule Release. [Related pubchem assays: 1663 (Primary HTS), 1678 (Summary of Project)]; type: functional
[23] = cytotoxicity toward DRD oncogenic fibroblasts, dose response, cell-based, non-viral oncogenic, luminescence (AID 1934); type: functional; details: Homo sapiens
BJ [24] = assay: cells; type: functional, cell-based, Homo sapiens; details: Homo sapiens, BJ

Sequence of Paired box protein Pax-8 (Q06710 whole entry): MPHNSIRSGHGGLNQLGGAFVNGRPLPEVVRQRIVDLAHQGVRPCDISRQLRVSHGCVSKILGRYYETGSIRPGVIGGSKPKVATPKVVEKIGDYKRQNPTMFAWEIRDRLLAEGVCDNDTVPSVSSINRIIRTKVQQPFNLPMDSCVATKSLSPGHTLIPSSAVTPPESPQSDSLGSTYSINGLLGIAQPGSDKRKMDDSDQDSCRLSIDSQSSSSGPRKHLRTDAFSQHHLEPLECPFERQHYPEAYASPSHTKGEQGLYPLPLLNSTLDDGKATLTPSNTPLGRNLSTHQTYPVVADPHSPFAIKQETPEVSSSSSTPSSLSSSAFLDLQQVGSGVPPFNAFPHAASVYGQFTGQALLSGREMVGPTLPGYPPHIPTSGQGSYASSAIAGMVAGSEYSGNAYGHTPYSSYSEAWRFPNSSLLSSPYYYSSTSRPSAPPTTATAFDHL
Sequence of Endoplasmic reticulum aminopeptidase 1 (Q9NZ08 whole entry): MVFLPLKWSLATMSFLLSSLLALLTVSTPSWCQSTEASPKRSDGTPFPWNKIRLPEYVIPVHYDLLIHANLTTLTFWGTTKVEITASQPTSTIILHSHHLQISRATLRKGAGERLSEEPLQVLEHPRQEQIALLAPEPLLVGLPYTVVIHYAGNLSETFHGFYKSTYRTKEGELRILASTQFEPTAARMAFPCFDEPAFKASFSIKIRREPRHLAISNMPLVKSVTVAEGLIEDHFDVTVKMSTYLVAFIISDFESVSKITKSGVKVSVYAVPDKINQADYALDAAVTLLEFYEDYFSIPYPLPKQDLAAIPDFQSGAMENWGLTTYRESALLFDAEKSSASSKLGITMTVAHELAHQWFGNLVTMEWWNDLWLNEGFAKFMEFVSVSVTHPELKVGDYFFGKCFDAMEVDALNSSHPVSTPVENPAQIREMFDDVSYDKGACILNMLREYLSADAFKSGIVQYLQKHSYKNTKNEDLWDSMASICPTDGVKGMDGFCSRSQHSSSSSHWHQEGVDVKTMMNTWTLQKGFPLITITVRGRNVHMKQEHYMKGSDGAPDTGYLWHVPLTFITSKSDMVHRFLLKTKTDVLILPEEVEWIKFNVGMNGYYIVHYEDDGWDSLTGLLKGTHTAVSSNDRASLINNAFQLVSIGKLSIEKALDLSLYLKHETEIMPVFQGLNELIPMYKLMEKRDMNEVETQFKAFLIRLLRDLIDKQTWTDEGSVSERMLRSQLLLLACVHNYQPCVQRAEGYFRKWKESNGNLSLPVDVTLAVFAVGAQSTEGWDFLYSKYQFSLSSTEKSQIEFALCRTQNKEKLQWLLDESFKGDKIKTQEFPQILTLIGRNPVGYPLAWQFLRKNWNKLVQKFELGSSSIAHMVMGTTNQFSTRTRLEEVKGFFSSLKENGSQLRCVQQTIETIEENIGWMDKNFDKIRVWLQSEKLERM
Sequence of Luciferin 4-monooxygenase (P08659 whole entry): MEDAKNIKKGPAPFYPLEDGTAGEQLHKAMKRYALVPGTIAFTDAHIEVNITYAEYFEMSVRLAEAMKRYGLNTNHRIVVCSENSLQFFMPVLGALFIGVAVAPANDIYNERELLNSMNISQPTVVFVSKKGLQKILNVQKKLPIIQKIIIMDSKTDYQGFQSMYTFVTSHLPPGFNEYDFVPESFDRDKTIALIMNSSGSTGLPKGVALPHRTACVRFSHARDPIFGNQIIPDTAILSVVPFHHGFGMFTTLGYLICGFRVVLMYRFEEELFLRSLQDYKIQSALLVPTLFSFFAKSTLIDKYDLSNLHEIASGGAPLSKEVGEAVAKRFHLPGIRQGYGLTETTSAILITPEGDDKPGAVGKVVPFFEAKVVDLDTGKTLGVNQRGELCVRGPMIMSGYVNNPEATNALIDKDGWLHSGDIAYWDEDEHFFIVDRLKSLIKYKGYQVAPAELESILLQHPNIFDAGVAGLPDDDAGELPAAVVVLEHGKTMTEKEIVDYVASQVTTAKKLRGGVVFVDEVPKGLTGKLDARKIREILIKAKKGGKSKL
Sequence of Nuclear receptor subfamily 0 group B member 1 (P51843 whole entry): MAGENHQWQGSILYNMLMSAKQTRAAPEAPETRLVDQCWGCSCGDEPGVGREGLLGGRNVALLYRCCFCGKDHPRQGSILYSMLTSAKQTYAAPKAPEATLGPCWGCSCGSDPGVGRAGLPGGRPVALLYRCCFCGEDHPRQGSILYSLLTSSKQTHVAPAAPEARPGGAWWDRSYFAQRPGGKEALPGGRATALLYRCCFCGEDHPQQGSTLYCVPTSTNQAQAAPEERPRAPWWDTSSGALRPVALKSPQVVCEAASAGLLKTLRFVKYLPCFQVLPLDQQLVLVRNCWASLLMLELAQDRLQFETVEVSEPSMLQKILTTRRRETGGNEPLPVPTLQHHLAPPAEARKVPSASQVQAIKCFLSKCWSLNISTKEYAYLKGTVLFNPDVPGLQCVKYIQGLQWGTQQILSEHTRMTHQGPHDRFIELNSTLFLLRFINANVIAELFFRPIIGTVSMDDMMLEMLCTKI
Sequence of Potassium channel subfamily K member 9 (Q9NPC2 whole entry): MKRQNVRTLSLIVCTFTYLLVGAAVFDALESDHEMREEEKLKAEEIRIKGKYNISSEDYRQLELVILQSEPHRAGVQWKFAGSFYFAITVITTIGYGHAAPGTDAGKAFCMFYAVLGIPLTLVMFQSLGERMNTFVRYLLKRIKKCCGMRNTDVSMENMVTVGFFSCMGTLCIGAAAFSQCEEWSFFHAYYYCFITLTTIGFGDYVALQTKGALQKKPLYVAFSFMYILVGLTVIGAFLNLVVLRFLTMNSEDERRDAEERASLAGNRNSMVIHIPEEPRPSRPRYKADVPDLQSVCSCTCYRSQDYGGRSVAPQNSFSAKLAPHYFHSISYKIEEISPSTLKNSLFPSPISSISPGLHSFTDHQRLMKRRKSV

Structure (SMILES): COc1ccc(C(=O)NCc2cc(C(C)C)no2)cc1OC1CCCN(C)C1 (configuration not stated)
IC50 [1]: 1.25 µM (active)

AC50 [2]: 7.31 µM (active)
Structure (SMILES): Cc1c(C)c2ccc(O)c(CN3CCCC3)c2oc1=O

Structure (SMILES): C[C@H](CO)N1C[C@H](C)[C@@H](CN(C)C(=O)Nc2cccc3ccccc23)OCCCC[C@H](C)Oc2ccc(NC(=O)c3ccncc3)cc2C1=O
AC50 [3]: 49.1 µM (active)
AC50 (Paired box protein Pax-8): 3.61 µM (active)

IC50 [4]: 13.4 µM (active)
Structure (SMILES): Cc1cccc(C(=O)Nc2cccc(NC(=O)c3cccc(Cl)c3)c2)c1

Structure (SMILES): Nc1nc(O)c2[nH]nnc2n1 [8-AZAGUANINE]
IC50 [5]: > 80 µM (inactive)
EC50 (cells [6]): 0.153 µM (active)
EC50 [7]: < 0.1 µM (active)
EC50 [8]: > 91.2 µM (inactive)
EC50 [9]: 10.3 µM (active)

Structure (SMILES): CS(=O)(=O)c1cccc(C(=O)Nc2ccc(-c3nc4ccccc4[nH]3)cc2)c1
IC50 [10]: > 67.5 µM (inactive)
IC50 (cells [11]): > 67.5 µM (inactive)

Structure (SMILES): COc1ccc(CN(C)C[C@H]2OCCCC[C@H](C)Oc3ccc(NC(=O)Nc4ccc(C(F)(F)F)cc4)cc3C(=O)N([C@@H](C)CO)C[C@@H]2C)cc1
AC50 [12]: 53.8 µM (active)
AC50 [13]: > 70 µM (inactive)
AC50 [14]: 6.4 µM (active)
AC50 [15]: 18.3 µM (active)
AC50 [16]: 11.3 µM (active)
AC50 (Paired box protein Pax-8): 8.38 µM (active)

Structure (SMILES): Cc1occc1C(=O)N/N=C/c1ccc2c(c1)OCO2
EC50 (BJ [17]): 8.43 µM (active)
AC50 (INS1): 4.17 µM (active)
AC50 [18]: 8.12 µM (active)
EC50 (BJ [19]): > 133 µM (inactive)
EC50 (BJ [20]): 16.8 µM (active)
EC50 [21]: 1.4 µM (active)
EC50 [22]: 1.77 µM (active)
EC50 [23]: 5.68 µM (active)
EC50 (BJ [24]): 7.36 µM (active)
